Experimental data reported in patent US20100298141A1, “SUBSTITUTED PYRIDINE N-OXIDE HERBICIDES” (E. I. DU PONT DE NEMOURS AND COMPANY, priority 2007, published 2010).

Legend:
morningglory [1] = assay: Test A pre-/postemergence greenhouse test; assay type: in vivo, Ipomoea spp.; details: for Plant response rating, Morningglory: 0 to 100 scale where 0 is no effect and 100 is complete control; for Morningglory plant response rating: 0 to 100 scale
Procedure, shortened: (§1)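 Herbicidal effect is a visual injury score given about ten days post-treatment by comparison with untreated controls. Preemergence plots received a directed spray onto sown loam–sand soil; postemergence plants, at the one- to two-leaf stage and 2–10 cm tall, were sprayed at the same time.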

redroot pigweed = assay: Test A pre-/postemergence greenhouse test; assay type: in vivo, Amaranthus retroflexus; details: for Plant response rating, Pigweed: 0 to 100 scale where 0 is no effect and 100 is complete control; for Pigweed plant response rating: 0 to 100 scale
Procedure, shortened: as §1

corn [2] = assay: Test A pre-/postemergence greenhouse test; assay type: in vivo, Zea mays; details: for Plant response rating, Corn: 0 to 100 scale where 0 is no effect and 100 is complete control; for Corn plant response rating: 0 to 100 scale
Procedure, shortened: as §1

Italian ryegrass = assay: Test C pre-/postemergence test; assay type: in vivo, Lolium multiflorum; details: for Plant response rating, Ryegrass, Italian: 31 g ai/ha, scale 0 to 100 (0 no effect, 100 complete control)
Procedure, shortened: (§2)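 Compounds in a non-phytotoxic solvent with surfactant applied preemergence to seeded pots and, at the same time, postemergence to plants 2–18 cm tall (1- to 4-leaf stage). Paddy tests: pots flooded to 3 cm, compound applied into the water, depth held throughout.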

wheat = assay: Test C pre-/postemergence test; assay type: in vivo, Triticum aestivum; details: for Plant response rating, Wheat: 31 g ai/ha, scale 0 to 100 (0 no effect, 100 complete control)
Procedure, shortened: as §2

wild oat = assay: Test C pre-/postemergence test; assay type: in vivo, Avena fatua; details: for Plant response rating, Oat, Wild: 31 g ai/ha, scale 0 to 100 (0 no effect, 100 complete control)
Procedure, shortened: as §2

bermudagrass = assay: Test C pre-/postemergence test; assay type: in vivo, Cynodon dactylon; details: for Plant response rating, Bermudagrass: 31 g ai/ha
Procedure, shortened: as §2

cocklebur = assay: Test C pre-/postemergence test; assay type: in vivo, Xanthium strumarium; details: for Plant response rating, Cocklebur: 31 g ai/ha, scale 0 to 100 (0 no effect, 100 complete control)
Procedure, shortened: as §2

corn [3] = assay: Test C pre-/postemergence test; assay type: in vivo, Zea mays; details: for Plant response rating, Corn: 31 g ai/ha, scale 0 to 100 (0 no effect, 100 complete control)
Procedure, shortened: as §2

giant foxtail = assay: Test C pre-/postemergence test; assay type: in vivo, Setaria faberii; details: for Plant response rating, Foxtail, Giant: 31 g ai/ha, scale 0 to 100 (0 no effect, 100 complete control)
Procedure, shortened: as §2

johnsongrass = assay: Test C pre-/postemergence test; assay type: in vivo, Sorghum halepense; details: for Plant response rating, Johnsongrass: 31 g ai/ha, scale 0 to 100 (0 no effect, 100 complete control)
Procedure, shortened: as §2

kochia = assay: Test C pre-/postemergence test; assay type: in vivo, Kochia scoparia; details: for Plant response rating, Kochia: 31 g ai/ha, scale 0 to 100 (0 no effect, 100 complete control)
Procedure, shortened: as §2

morningglory [4] = assay: Test C pre-/postemergence test; assay type: in vivo, Ipomoea coccinea; details: for Plant response rating, Morningglory: 31 g ai/ha, scale 0 to 100 (0 no effect, 100 complete control)
Procedure, shortened: as §2

eastern black nightshade = assay: Test C pre-/postemergence test; assay type: in vivo, Solanum ptycanthum
Procedure, shortened: as §2

yellow nutsedge = assay: Test C pre-/postemergence test; assay type: in vivo, Cyperus esculentus; details: for Plant response rating, Nutsedge, Yellow: 31 g ai/ha, scale 0 to 100 (0 no effect, 100 complete control)
Procedure, shortened: as §2

[5] = system: common (oilseed) sunflower; assay: Test C pre-/postemergence test; assay type: in vivo, Helianthus annuus; details: for Plant response rating, Sunflower: 31 g ai/ha, scale 0 to 100 (0 no effect, 100 complete control)
Procedure, shortened: as §2

rice = assay: Test C flooded paddy test; assay type: in vivo, Oryza sativa; details: Flood
Procedure, shortened: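 Ratings were visual and made relative to untreated controls after 13 to 15 greenhouse days.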

[6] = Postemergence, 500 g ai/ha, 0 is no effect, 100 is complete control
[7] = Preemergence, 125 g ai/ha, 0 no effect, 100 complete control
[8] = 62 g ai/ha, Preemergence, scale 0 to 100
[9] = 125 g ai/ha, preemergence, scale 0 (no effect) to 100 (complete control)
[10] = preemergence, 250 g ai/ha, scale 0 (no effect) to 100 (complete control)
[11] = 62 g ai/ha, Preemergence, scale 0 to 100 (0 no effect, 100 complete control)
[12] = Preemergence, scale 0 to 100 (0 no effect, 100 complete control)
[13] = 62 g ai/ha, scale 0 to 100 (0 no effect, 100 complete control)
[14] = 250 g ai/ha, scale 0 to 100, 0 no effect, 100 complete control, 13 to 15 days

## CCc1cc[n+]([O-])c([S+]([O-])Cc2c(C(F)(F)F)nn(C)c2OCC(F)(F)F)c1 (stereo not drawn) [Compound 59]
Morningglory [1]; Postemergence, 125 g ai/ha
  Plant response rating, Morningglory: 50
Morningglory [1]; [6]
  Morningglory plant response rating: 90
Morningglory [1]; [7]
  Morningglory plant response rating: 70
Morningglory [1]; Preemergence, 500 g ai/ha
  Plant response rating, Morningglory: 100
Redroot pigweed; Postemergence, 125 g ai/ha
  Plant response rating, Pigweed: 60
Redroot pigweed; [6]
  Pigweed plant response rating: 90
Redroot pigweed; [7]
  Pigweed plant response rating: 100
Redroot pigweed; Preemergence, 500 g ai/ha
  Plant response rating, Pigweed: 100
Corn [2]; Postemergence, 125 g ai/ha
  Plant response rating, Corn: 50
Corn [2]; [6]
  Corn plant response rating: 70
Corn [2]; [7]
  Corn plant response rating: 20
Corn [2]; Preemergence, 500 g ai/ha
  Plant response rating, Corn: 90
Italian ryegrass; [8]
  Ryegrass, Italian plant response rating: 55
Italian ryegrass; [9]
  Ryegrass, Italian plant response rating: 80
Italian ryegrass; Preemergence
  Plant response rating, Ryegrass, Italian: 30
Italian ryegrass; [10]
  Ryegrass, Italian plant response rating: 95
wheat; [8]
  Wheat plant response rating: 40
wheat; [9]
  Wheat plant response rating: 85
wheat; Preemergence
  Plant response rating, Wheat: 30
wheat; [10]
  Wheat plant response rating: 95
Wild oat; [8]
  Oat, Wild plant response rating: 85
Wild oat; [9]
  Oat, Wild plant response rating: 90
Wild oat; Preemergence
  Plant response rating, Oat, Wild: 60
Wild oat; [10]
  Oat, Wild plant response rating: 90
bermudagrass; [11]
  Bermudagrass plant response rating: 100
bermudagrass; [9]
  Bermudagrass plant response rating: 100
bermudagrass; [12]
  Plant response rating, Bermudagrass: 70
bermudagrass; [10]
  Bermudagrass plant response rating: 100
cocklebur; [8]
  Cocklebur plant response rating: 0
cocklebur; [9]
  Cocklebur plant response rating: 30
cocklebur; Preemergence
  Plant response rating, Cocklebur: 0
cocklebur; [10]
  Cocklebur plant response rating: 80
Corn [3]; [8]
  Corn plant response rating: 45
Corn [3]; [9]
  Corn plant response rating: 100
Corn [3]; Preemergence
  Plant response rating, Corn: 25
Corn [3]; [10]
  Corn plant response rating: 100
Giant foxtail; [8]
  Foxtail, Giant plant response rating: 55
Giant foxtail; [9]
  Foxtail, Giant plant response rating: 98
Giant foxtail; Preemergence
  Plant response rating, Foxtail, Giant: 35
Giant foxtail; [10]
  Foxtail, Giant plant response rating: 100
johnsongrass; [8]
  Johnsongrass plant response rating: 60
johnsongrass; [9]
  Johnsongrass plant response rating: 100
johnsongrass; Preemergence
  Plant response rating, Johnsongrass: 45
johnsongrass; [10]
  Johnsongrass plant response rating: 100
kochia; [8]
  Kochia plant response rating: 70
kochia; [9]
  Kochia plant response rating: 100
kochia; Preemergence
  Plant response rating, Kochia: 0
kochia; [10]
  Kochia plant response rating: 100
Morningglory [4]; [8]
  Morningglory plant response rating: 100
Morningglory [4]; [9]
  Morningglory plant response rating: 100
Morningglory [4]; Preemergence
  Plant response rating, Morningglory: 50
Morningglory [4]; [10]
  Morningglory plant response rating: 100
Eastern black nightshade; [8]
  Nightshade plant response rating: 85
Eastern black nightshade; [10]
  Nightshade plant response rating: 85
Yellow nutsedge; [8]
  Nutsedge, Yellow plant response rating: 30
Yellow nutsedge; [9]
  Nutsedge, Yellow plant response rating: 85
Yellow nutsedge; Preemergence
  Plant response rating, Nutsedge, Yellow: 0
Yellow nutsedge; [10]
  Nutsedge, Yellow plant response rating: 95
[5]; [8]
  Sunflower plant response rating: 85
[5]; [9]
  Sunflower plant response rating: 85
[5]; Preemergence
  Plant response rating, Sunflower: 40
[5]; [10]
  Sunflower plant response rating: 100
rice; [13]
  Plant response rating, Rice: 10
rice; [14]
  Plant response rating, Rice: 70

## CCc1cc[n+]([O-])c(S(=O)(=O)Cc2c(C(F)(F)F)nn(C)c2OCC(F)(F)F)c1 [Compound 60]
Morningglory [1]; Postemergence, 125 g ai/ha
  Plant response rating, Morningglory: 50
Morningglory [1]; [6]
  Morningglory plant response rating: 60
Morningglory [1]; [7]
  Morningglory plant response rating: 70
Morningglory [1]; Preemergence, 500 g ai/ha
  Plant response rating, Morningglory: 100
Redroot pigweed; Postemergence, 125 g ai/ha
  Plant response rating, Pigweed: 60
Redroot pigweed; [6]
  Pigweed plant response rating: 80
Redroot pigweed; [7]
  Pigweed plant response rating: 100
Redroot pigweed; Preemergence, 500 g ai/ha
  Plant response rating, Pigweed: 100
Corn [2]; Postemergence, 125 g ai/ha
  Plant response rating, Corn: 30
Corn [2]; [6]
  Corn plant response rating: 60
Corn [2]; [7]
  Corn plant response rating: 0
Corn [2]; Preemergence, 500 g ai/ha
  Plant response rating, Corn: 50
Italian ryegrass; [8]
  Ryegrass, Italian plant response rating: 75
Italian ryegrass; [9]
  Ryegrass, Italian plant response rating: 80
Italian ryegrass; Preemergence
  Plant response rating, Ryegrass, Italian: 20
Italian ryegrass; [10]
  Ryegrass, Italian plant response rating: 90
wheat; [8]
  Wheat plant response rating: 15
wheat; [9]
  Wheat plant response rating: 30
wheat; Preemergence
  Plant response rating, Wheat: 0
wheat; [10]
  Wheat plant response rating: 100
Wild oat; [8]
  Oat, Wild plant response rating: 85
Wild oat; [9]
  Oat, Wild plant response rating: 90
Wild oat; Preemergence
  Plant response rating, Oat, Wild: 40
Wild oat; [10]
  Oat, Wild plant response rating: 98
bermudagrass; [11]
  Bermudagrass plant response rating: 100
bermudagrass; [9]
  Bermudagrass plant response rating: 100
bermudagrass; [12]
  Plant response rating, Bermudagrass: 100
bermudagrass; [10]
  Bermudagrass plant response rating: 100
cocklebur; [8]
  Cocklebur plant response rating: 0
cocklebur; [9]
  Cocklebur plant response rating: 0
cocklebur; Preemergence
  Plant response rating, Cocklebur: 0
cocklebur; [10]
  Cocklebur plant response rating: 0
Corn [3]; [8]
  Corn plant response rating: 20
Corn [3]; [9]
  Corn plant response rating: 55
Corn [3]; Preemergence
  Plant response rating, Corn: 0
Corn [3]; [10]
  Corn plant response rating: 98
Giant foxtail; [8]
  Foxtail, Giant plant response rating: 100
Giant foxtail; [9]
  Foxtail, Giant plant response rating: 100
Giant foxtail; Preemergence
  Plant response rating, Foxtail, Giant: 100
Giant foxtail; [10]
  Foxtail, Giant plant response rating: 100
johnsongrass; [8]
  Johnsongrass plant response rating: 100
johnsongrass; [9]
  Johnsongrass plant response rating: 100
johnsongrass; Preemergence
  Plant response rating, Johnsongrass: 100
johnsongrass; [10]
  Johnsongrass plant response rating: 100
kochia; [8]
  Kochia plant response rating: 100
kochia; [9]
  Kochia plant response rating: 100
kochia; Preemergence
  Plant response rating, Kochia: 80
kochia; [10]
  Kochia plant response rating: 100
Morningglory [4]; [8]
  Morningglory plant response rating: 90
Morningglory [4]; [9]
  Morningglory plant response rating: 100
Morningglory [4]; Preemergence
  Plant response rating, Morningglory: 50
Morningglory [4]; [10]
  Morningglory plant response rating: 100
Eastern black nightshade; [8]
  Nightshade plant response rating: 80
Eastern black nightshade; [9]
  Nightshade plant response rating: 100
Eastern black nightshade; [10]
  Nightshade plant response rating: 100
Yellow nutsedge; [8]
  Nutsedge, Yellow plant response rating: 50
Yellow nutsedge; [9]
  Nutsedge, Yellow plant response rating: 100
Yellow nutsedge; Preemergence
  Plant response rating, Nutsedge, Yellow: 20
Yellow nutsedge; [10]
  Nutsedge, Yellow plant response rating: 100
[5]; [8]
  Sunflower plant response rating: 55
[5]; [9]
  Sunflower plant response rating: 70
[5]; Preemergence
  Plant response rating, Sunflower: 40
[5]; [10]
  Sunflower plant response rating: 80
rice; [13]
  Plant response rating, Rice: 0
rice; [14]
  Plant response rating, Rice: 20
